Test system: S. Typhimurium PhoP-promoter GFP reporter counterscreen, fluorescence, 4 h
Test: S. Typhimurium GFP fluorescence modified counterscreen for PhoP regulon inhibitor project dose response (AID 1981)

Molecule `COc1ccc(OCC(O)CNc2ccc(Br)cc2)cc1` (stereo not given) has an IC50 of 20 µM.

For `Cc1[nH]n(-c2ccccc2)c(=O)c1/C=N/Nc1nncc(-c2ccccc2)n1`, the IC50 was 22.1 µM.

Work on `Cc1[nH]n(-c2ccccc2)c(=O)c1C(C[N+](=O)[O-])c1ccc(F)cc1` (stereo not given) yielded an IC50 of 109 µM.

Molecule `Oc1ccc(CN2CCc3ccccc3C2)c2cccnc12` has an IC50 of 30.5 µM.

Work on `CCN1/C(=C/C=C/C=C/c2sc3ccccc3[n+]2CC)Sc2ccccc21` yielded an IC50 of 23.6 µM.

`COc1cc(C(=O)Oc2c(CN3CCOCC3)cc(Cl)c3cccnc23)cc(OC)c1OC` was tested, and the IC50 was 113 µM.

`O=C(Cc1ccccc1)Nc1cccc(N2C(=O)C=CC2=O)c1` was tested, and the IC50 was 142 µM.

`C=C1c2c(Cl)ccc(O)c2C(O)=C2C(=O)[C@]3(O)C(O)=C(C(N)=O)C(=O)[C@@H](N(C)C)[C@@H]3[C@@H](O)C12` (stereo not given in full) was tested, and the IC50 was 0.94 µM.

With `NC(N)=N/N=C/c1ccc(OCc2ccc(Cl)cc2)cc1` the IC50 was 56.5 µM.

`O=C(NNC(=O)c1cnccn1)c1ccc(Cl)cc1` gave an IC50 of 89.5 µM.

With `CCCCCCCCCCCCCCCC[N+](C)(C)CCN(Cc1ccc(OC)cc1)c1ncccn1` the IC50 was 24.2 µM.

`Oc1cccc(/C=N/Nc2ccc(Cl)nn2)c1O` showed an IC50 of 24.4 µM.

In the case of `COc1cc(C)c(Cc2cnc(N)nc2N)cc1OC`, the IC50 is reported as 3.05 µM.

With `Cc1c2ccncc2c(C)c2c1[nH]c1ccccc12` the IC50 was 69.7 µM.

Molecule `O=c1cc2oc3cc(O)c(O)cc3c(-c3ccccc3[N+](=O)[O-])c-2cc1O` has an IC50 of 56.6 µM.

`O=C(Nc1cccc(N=Cc2cc(Br)cc(Br)c2O)c1)c1ccco1` was tested, and the IC50 was 119 µM.

Molecule `Oc1cccc2ccc(Nc3ccccn3)nc12` has an IC50 of 14.5 µM.

In the case of `O=C1C=C(N2CCOCC2)c2ccccc2C1=O`, the IC50 is reported as 69.9 µM.

`COc1ccc(C(=O)Cn2nc(CNc3ccc(Br)cc3)[n+]3c2CCCCC3)cc1` showed an IC50 of 106 µM.

For `CC(Cc1ccccc1)NCc1ccccc1O` (stereo not given), the IC50 was 63.8 µM.

For `CCCCCCCCCC[N+](C)(C)CC/C=C1/c2ccccc2Sc2ccc(Cl)cc21`, the IC50 was 40 µM.

`CCOc1ccc(Nc2nc(N)c3ccccc3n2)cc1` showed an IC50 of 109 µM.

In the case of `Oc1c(CN2CCc3ccccc3C2)cc(Cl)c2cccnc12`, the IC50 is reported as 7.36 µM.

Molecule `O=[N+]([O-])c1ccc(-c2ccn[nH]2)o1` has an IC50 of 33.7 µM.

`Cc1nc(N)c(Cc2ccc(Cl)cc2Cl)c(N)n1` showed an IC50 of 86.9 µM.

`FC(F)(F)c1ccc2c(c1)N(CCCN1CCN(CCCl)CC1)c1ccccc1S2` showed an IC50 of 146 µM.

With `O=C(N/N=C\c1cccc([N+](=O)[O-])c1O)C1COc2ccccc2O1` (stereo not given) the IC50 was 96 µM.

For `CCN1CCN(C(c2ccc(C(F)(F)F)cc2)c2ccc3cccnc3c2O)CC1` (stereo not given), the IC50 was 46.1 µM.

Molecule `CC1CCC(C(C)C)C(OC(=O)Cn2c(COc3ccccc3)[n+](C)c3ccccc32)C1` (stereo not given) has an IC50 of 85.5 µM.

`C#CCOCCOCCOCCNc1nc(N2CCN(C(=O)CCCCCCCCCCNC(=O)[C@H](CO)n3cc(CCCCCN)nn3)CC2)nc(N2CCN(C(=O)CCCCCCCCCCNC(=O)[C@H](CCCN=C(N)N)n3cc(C[C@@H](C)CC)nn3)CC2)n1` showed an IC50 of 90.3 µM.

`Cc1cc(C)c2ccc(N)nc2c1O` was tested, and the IC50 was 49.9 µM.

With `CCn1nc(C(=O)O)c(=O)c2cc3c(cc21)OCO3` the IC50 was 52.1 µM.

For `c1ccc(-c2cccc(-c3ccccn3)n2)nc1`, the IC50 was 16.4 µM.

`CC(C(=O)NC1C=CS(=O)(=O)C1)N1C(=O)/C(=C/c2ccc(Cl)cc2)SC1=S` (stereo not given) gave an IC50 of 141 µM.

Work on `CCCCCCCCCCCCCCCC[N+](C)(C)C` yielded an IC50 of 37.9 µM.

With `CCn1cc(C(=O)O)c(=O)c2cc(F)c(N3CCN(C(=S)NC(=O)c4ccc(OC)cc4)CC3)cc21` the IC50 was 13.4 µM.

Work on `O=S1(=O)N=C(N/N=C/c2ccccn2)c2ccccc21` yielded an IC50 of 29.1 µM.

For `Nc1cccc2nc3ccccc3cc12`, the IC50 was 43.4 µM.

Work on `Cc1ccc(C)n1-c1cc(S(=O)(=O)N2CCOCC2)ccc1N1CCCC1` yielded an IC50 of 138 µM.

`Cc1ccc(C(=O)Sc2cccccc2=O)cc1` gave an IC50 of 16.5 µM.

`Cc1ccc(Nc2c3c(nc4ccccc24)CCC3)cc1` was tested, and the IC50 was 146 µM.

`COc1ccc(CNC[C@@H](CCCCN(C)Cc2ccc(OC)cc2)N2C[C@H](c3ccccc3)N(CCc3ccc(Cl)c(Cl)c3)C(=O)C2=O)cc1` was tested, and the IC50 was 108 µM.

`O=C(Nc1ccccc1)Oc1ccc[nH]c1=O` was tested, and the IC50 was 80.6 µM.

Molecule `O=C(N/N=C/c1cc2c3c(c1O)CCCN3CCC2)c1ccccc1O` has an IC50 of 135 µM.

With `O=C(N/N=C/c1sc2ccccc2c1O)c1cccc2ccccc12` the IC50 was 40 µM.

Reference: PubChem BioAssay AID1981 (Southern Research Specialized Biocontainment Screening …, 2009)
